This test addresses T1, human M1 receptor (hCHRM1) (Homo sapiens, UniProt P11229).
T1 construct: expressed in transfected cells
T1 sequence (P11229 1-460): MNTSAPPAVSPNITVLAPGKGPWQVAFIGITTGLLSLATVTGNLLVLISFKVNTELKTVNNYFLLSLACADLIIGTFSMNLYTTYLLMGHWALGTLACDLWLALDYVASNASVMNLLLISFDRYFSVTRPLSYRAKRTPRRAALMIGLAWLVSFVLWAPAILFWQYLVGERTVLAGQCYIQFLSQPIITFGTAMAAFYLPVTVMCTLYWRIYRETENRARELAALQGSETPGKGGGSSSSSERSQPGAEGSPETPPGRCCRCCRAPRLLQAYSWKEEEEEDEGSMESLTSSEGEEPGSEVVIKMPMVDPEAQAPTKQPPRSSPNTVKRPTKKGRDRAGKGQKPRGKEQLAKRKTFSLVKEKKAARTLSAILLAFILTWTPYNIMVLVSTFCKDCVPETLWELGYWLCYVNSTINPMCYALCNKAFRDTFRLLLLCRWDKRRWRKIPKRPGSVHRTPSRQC
Description: Measurement of M1 receptor positive allosteric modulator (M1PAM) activity, calcium fluorescence (FLIPRtetra) with acetylcholine at EC20. The test is classed as cell-based. Particulars: for activity (%) at 10 μM: 10 μM test compound, 100% = acetylcholine 1 μM, 0% = DMSO, acetylcholine at EC20; for EC50: inflection point of concentration-dependent curve, CHO-K1 cells expressing hCHRM1, acetylcholine at EC20 (final 0.6-0.8 nM), read-out: IP value. The procedure, abridged:
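CHO-K1 cells stably expressing hCHRM1, Fluo-4 AM loaded; compound added with acetylcholine at EC20 (final 0.6-0.8 nM), fluorescence read 1 min. Activity normalised to 1 μM acetylcholine (100%) and DMSO (0%); IP values taken as inflection point of the concentration-response curve.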

Regarding `COc1cc2c(cc1Cc1ccc(-n3cccn3)cc1)C(=O)N([C@H]1CCCC[C@@H]1O)C2` (racemic) [Example 3, rac-2-(trans-2-hydroxycyclohexyl)-5-methoxy-6-(4-(1H-pyrazol-1-yl)benzyl)isoindolin-1-one], the “activity (%) at 10 μM” value came out at 106% and the EC50 came out at 15 nM.

As to `Cc1c(Cc2ccc(-n3cccn3)cc2)cc2c(c1C)CN(CC1CCCO1)C2=O` (stereo not shown) [Example 80, 4,5-dimethyl-6-(4-(1H-pyrazol-1-yl)benzyl)-2-(tetrahydrofuran-2-ylmethyl)isoindolin-1-one], the “activity (%) at 10 μM” value is 90% and the EC50 was 14 nM.

Take `COc1ccc(Cc2cc3c(cc2C)CN([C@H]2COCC[C@@H]2O)C3=O)cc1` [Example 164, 2-[(3S,4S)-4-hydroxytetrahydro-2H-pyran-3-yl]-6-(4-methoxybenzyl)-5-methyl-2,3-dihydro-1H-isoindol-1-one]: the “activity (%) at 10 μM” value was determined as 102% and the EC50 turned out to be 62 nM.

Consider `Cc1c(Cc2ccc(-c3cnn(C)c3)cc2)cc2c(c1C)CN([C@H]1CCC[C@@H]1O)C2=O` (racemic) [Example 69, rac-2-(trans-2-hydroxycyclopentyl)-4,5-dimethyl-6-(4-(1-methyl-1H-pyrazol-4-yl)benzyl)isoindolin-1-one], for which the “activity (%) at 10 μM” value turned out to be 95% and the EC50 stood at 13 nM.

Regarding `COc1ccc(Cc2cc3c(c(C)c2C)CN([C@H]2COCC[C@@H]2O)C3=O)c(F)c1` [Example 163, 6-(2-fluoro-4-methoxybenzyl)-2-[(3S,4S)-4-hydroxytetrahydro-2H-pyran-3-yl]-4,5-dimethyl-2,3-dihydro-1H-isoindol-1-one], the “activity (%) at 10 μM” value turned out to be 108% and the EC50 is 51 nM.

Consider `Cc1c(Cc2ccc(-n3cccn3)cc2)cc2c(c1F)CN([C@H]1CCC[C@@H]1O)C2=O` [Example 107, 4-fluoro-2-((1S,2S)-2-hydroxycyclopentyl)-5-methyl-6-(4-(1H-pyrazol-1-yl)benzyl)isoindolin-1-one], for which the “activity (%) at 10 μM” value is listed as 102% and the EC50 was 14 nM.

For the compound `Cc1cc2c(cc1Cc1ccc(-c3cnn(C)c3)cc1)C(=O)N([C@H]1CCC[C@@H]1O)C2` (racemic) [Example 67, rac-2-(trans-2-hydroxycyclopentyl)-5-methyl-6-(4-(1-methyl-1H-pyrazol-4-yl)benzyl)isoindolin-1-one], the “activity (%) at 10 μM” value was determined as 93% and the EC50 was found to be 26 nM.

Regarding `Cc1cc(-c2ccc(Cc3cc4c(cc3C)CN([C@H]3CCC[C@@H]3O)C4=O)cn2)ccn1` (racemic) [Example 41, rac-2-(trans-2-hydroxycyclopentyl)-5-methyl-6-((2′-methyl-2,4′-bipyridin-5-yl)methyl)isoindolin-1-one], the “activity (%) at 10 μM” value is listed as 97% and the EC50 came to 30 nM.

`Cn1cc(-c2ccc(Cc3cc4c(cc3Cl)CN(CC3CCCO3)C4=O)cc2)nn1` (stereo not shown) [Example 60, 5-chloro-6-(4-(1-methyl-1H-1,2,3-triazol-4-yl)benzyl)-2-(tetrahydrofuran-2-ylmethyl)isoindolin-1-one]: the “activity (%) at 10 μM” value came to 94% and the EC50 is 72 nM.

Turning to `CCc1cc2c(cc1Cc1ccc(-c3ccn(C)n3)cc1)C(=O)N([C@H]1CCC[C@@H]1O)C2` (racemic) [Example 63, rac-5-ethyl-2-(trans-2-hydroxycyclopentyl)-6-(4-(1-methyl-1H-pyrazol-3-yl)benzyl)isoindolin-1-one], the “activity (%) at 10 μM” value was found to be 99% and the EC50 was determined as 45 nM.

Regarding `CNC(=O)c1ccc(Cc2cc3c(c(C)c2C)CN(C[C@@H]2CCCO2)C3=O)cc1F` [Example 139, 4-((6,7-dimethyl-3-oxo-2-((2S)-tetrahydrofuran-2-ylmethyl)-2,3-dihydro-1H-isoindol-5-yl)methyl)-2-fluoro-N-methylbenzamide], the “activity (%) at 10 μM” value was 102% and the EC50 came to 14 nM.

For the origin of these results see patent US9315458B2, “Nitrogen-containing heterocyclic compound” (Takeda Pharmaceutical Company Limited, priority 2014, dated 2016).
